What was measured:
[1] = system: placental blood CD34+ cells; assay: ERYTHRO 2 PROTOCOL: three-phase erythrocyte differentiation; format: cell-based, human
Description: (§1) This protocol was applied to CD34^+ cells. Phase 1 of this protocol was in particular applied to BFU-E cells. This protocol was adapted from Vlaski et al. (Experimental Hematology 2009; 37:573-584).
(§2) The ex vivo erythrocyte production was established on a 28-day cell culture and involves three phases, namely 1) amplification of primitive erythrocyte progenitors, then 2) differentiation of said progenitors into erythrocyte precursors, and finally 3) the terminal stage of maturation with cell enucleation and development of mature erythrocytes.
(§3) i. Detailed Description of the Three Phases of the Protocol • Phase I of the protocol starts on DO with the seeding of 10^4 cells/mL in 5 mL of supplemented IMDM medium as defined below (see section ii). On day 4, dilution of the culture is performed by recovering 3 mL, which is replaced with the same volume of fresh medium. […] From day 11 to the end of the process, the cells are placed on a layer of mesenchymal stromal cells (MSCs) (coculture), allowing terminal maturation into functional enucleated cells by virtue of the contact between stromal cells and erythrocyte precursors. Suspended erythrocyte cells are seeded at a concentration of 3×10^5/ml and co-cultured from day 11 to day 15 in fresh medium with cytokines (SCF, IL-3, EPO and HC) and 5% fetal calf serum (FCS) required for MSCs. On day 15, the suspended erythrocyte cells are removed from culture, washed, then reseeded onto a new adherent layer of MSCs and cultured for a further four days in 2 mL of fresh medium containing only EPO. • Phase III of the protocol begins on day 19. At this stage, the cells complete their maturation by the enucleation of orthochromatic erythroblasts to form reticulocytes, leading to the formation of erythrocytes. On day 19, the cells are washed and spread on a new layer of MSCs in 2 mL of fresh cytokine-free medium. On day 23, the cultures are fed with fresh medium until day 28, corresponding to the last day of culture in the erythropoiesis protocol. ii. Description of the Culture Medium
(§4) The cells are incubated in Iscove's Modified Dulbecco Medium (IMDM_PAN BIOTECH) supplemented with various reagents to obtain a medium promoting the growth of cells committed to the erythrocyte lineage, namely: • L-Glutamine (4 mM), • Streptomycin and penicillin (1%), • Inositol (40 μg/mL), • Folic acid (10 μg/mL), • Mono-thioglycerol (1.6×10^−4 M), • Transferrin (120 μg/mL), • Insulin (10 μg/mL), N • Iron nitrate (90 ng/mL), • Iron sulfate (900 ng/mL) • Human serum albumin (10 mg/ml).
(§5) After preparation of the culture medium, cytokines are added extemporaneously to the culture medium: • Stem Cell Factor (SCF) at 100 ng/mL, • Interleukin-3 (IL-3) at 5 ng/mL, • Erythropoietin (EPO) at 3 IU/mL, • Hydrocortisone (HC) at 10^−6 M. The CD34^+ cells are incubated at 20% O2 and 5% CO2 at 37° C. for 28 days. iii. Description of the Culture Conditions Applied In order to test the effect of vitisin B in this context, various conditions were defined.
(§6) • CTRL condition: Absence of vitisin B throughout the entire protocol. • Condition I: Presence of vitisin B (10 μM) during phase I of the protocol. • […]: Presence of vitisin B (10 μM) during phases I and II of the protocol. • Condition III: Presence of vitisin B (10 μM) during the three phases of the protocol.
(§7) Analyses are performed on cells from each condition. The differentiation and maturation of erythrocyte cells are monitored by quantifying progenitors, analyzing the expression of GPA and CD71 markers, and also by morphological analysis.
(§8) During and at the end of the various erythrocyte differentiation protocols, cell proliferation and cell differentiation are analyzed. Cell proliferation is evaluated by counting of cells on Malassez slides, with Trypan blue exclusion of dead cells. […]

[2] = system: peripheral blood CD34+ cells; assay: as above; format: cell-based, human; settings: peripheral blood CD34+ cells in homeostasis, 10 μM
Description: as §1, §2, §3, §4, §5, §6, §7, §8

Q: For `Oc1ccc(C2Oc3ccc(/C=C/c4cc(O)cc5c4[C@H](c4cc(O)cc(O)c4)[C@@H](c4ccc(O)cc4)O5)cc3C2c2cc(O)cc3c2C(c2cc(O)cc(O)c2)C(c2ccc(O)cc2)O3)cc1` (stereo in doubt) [vitisin B, 5-[(2R,2'S,3R,3'S)-5-[(1E)-2-[(2S,3S)-3-(3,5-Dihydroxyphenyl)-2,3-dihydro-6-hydroxy-2-(4-hydroxyphenyl)-4-benzofuranyl]ethenyl]-2,2′,3,3′-tetrahydro-6′-hydroxy-2,2′-bis(4-hydroxyphenyl)[3,4′-bibenzofuran]-3′-yl]-1,3-benzenediol], which “percentage of cells with the phenotype CD71negGPA+” value ([1]; 10 μM, versus CTRL, FIG. 6A) is on record?
A: Its value is “increases”.

Q: And the “cell proliferation in phase I” value ([1]; Days 0 to 11, 10 μM, versus CTRL, FIG. 5)?
A: The value was “similar”.

Q: What about the “number of cells relative to the control condition (CTRL)” value ([1]; condition I: vitisin B 10 μM during phase I only, FIG. 5) of the same compound?
A: The value was 1.5 times.

Q: And the “cells expressing GPA” value ([1]; day 8 of culture, stated without distinguishing conditions)?
A: Its value is “less than 20%”.

Q: What about the “cells expressing GPA” value ([1]; day 28, 10 μM (CTRL 40%), FIG. 6A) of the same compound?
A: The value was “more than 50%”.

Q: What about the “cell proliferation from the transition to phase II” value ([1]; from Day 11, peak on day 21, 10 μM, conditions I, II, III, FIG. 5) of the same compound?
A: The value was “sharp increase”.

Q: What about the “absolute number of cells with the phenotype CD71negGPA+” value ([1]; vitisin B 10 μM in phase I, FIG. 6B) of the same compound?
A: Its value is “increases”.

Q: And the “cell proliferation from the transition to phase II” value [2]?
A: The value was “sharp increase”.
